Experimental data published in patent US20230234942A1, “COMPOUNDS FOR TREATING HUNTINGTON'S DISEASE” (PTC Therapeutics, Inc., priority 2020, published 2023).

Test system: Endogenous Huntingtin Protein
Assay: Endogenous Huntingtin Protein Assay (ELISA-based MSD electrochemiluminescence)
Assay type: cell-based
Conditions: Table 2; MSD plates coated with MW1 (expanded polyglutamine) or MAB2166 capture antibody; "inactive" = result above the detection limit of the assay
In short: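 Endogenous huntingtin measured on MSD plates coated with MW1 (polyglutamine-expanded) or MAB2166 capture antibody; lysates bound overnight at 4 °C. Signal developed with #56565 rabbit monoclonal and goat anti-rabbit SULFO-TAG (0.25 µg/mL, 1 h RT each), electrochemiluminescence read on SI 6000.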

SMILES	IC50 [nM]
Cn1nnc2nc(-c3ccc(-c4cnc(N5CCN[C@@H](C6CC6)C5)nn4)c(O)c3)ccc21 [Cpd 171, 2-{3-[(3S)-3-cyclopropylpiperazin-1-yl]-1,2,4-triazin-6-yl}-5-(1-methyl-1H-[1,2,3]triazolo[4,5-b]pyridin-5-yl)phenol]	14.1
[2H]C([2H])([2H])n1cc(-c2ccc(-c3cnc(N4CCN[C@@H](C(C)C)C4)nn3)c(O)c2)cn1 [Cpd 47, 5-[1-(Hz)methyl-1H-pyrazol-4-yl]-2-{3-[(3S)-3-(propan-2-yl)piperazin-1-yl]-1,2,4-triazin-6-yl}phenol]	154
Oc1cc(-c2cn[nH]c2)ccc1-c1cnc(N2CCN3C[C@H](O)C[C@H]3C2)nn1 [Cpd 59, (7R,8aS)-2-{6-[2-hydroxy-4-(1H-pyrazol-4-yl)phenyl]-1,2,4-triazin-3-yl}octahydropyrrolo[1,2-a]pyrazin-7-ol]	876
Cc1cn2cc(-c3ccc(-c4cnc(N5CCN[C@@H](C(C)C)C5)nn4)c(O)c3)ncc2n1 [Cpd 141, 5-(2-methylimidazo[1,2-a]pyrazin-6-yl)-2-{3-[(3S)-3-(propan-2-yl)piperazin-1-yl]-1,2,4-triazin-6-yl}phenol]	2.3
CC(C)[C@H]1CN(c2ncc(-c3ccc(-c4ccncc4)cc3O)nn2)CCN1 [Cpd 161, 2-{3-[(3S)-3-(propan-2-yl)piperazin-1-yl]-1,2,4-triazin-6-yl}-5-(pyridin-4-yl)phenol]	60.5
Oc1cc(-c2cn[nH]c2)ccc1-c1cnc(N2CC3CCC(C2)N3)nn1 [Cpd 135, 2-[3-(3,8-diazabicyclo[3.2.1]octan-3-yl)-1,2,4-triazin-6-yl]-5-(1H-pyrazol-4-yl)phenol]	185
Cc1cn2nc(-c3ccc(-c4cnc(N5CCN(C)CC5)nn4)c(O)c3)ccc2n1 [Cpd 82, 5-(2-methylimidazo[1,2-b]pyridazin-6-yl)-2-[3-(4-methylpiperazin-1-yl)-1,2,4-triazin-6-yl]phenol]	5.5
CCc1cc(-c2ccc(-c3cnc(N4CCN[C@@H](C(C)C)C4)nn3)c(O)c2)ncn1 [Cpd 150, 5-(6-ethylpyrimidin-4-yl)-2-{3-[(3S)-3-(propan-2-yl)piperazin-1-yl]-1,2,4-triazin-6-yl}phenol]	139
Oc1cc(-c2ncns2)ccc1-c1cnc(N2CCN[C@@H](C3CC3)C2)nn1 [Cpd 170, 2-{3-[(3S)-3-cyclopropylpiperazin-1-yl]-1,2,4-triazin-6-yl}-5-(1,2,4-thiadiazol-5-yl)phenol]	21.5
CC(C)[C@@H]1CN(c2ncc(-c3ccc(-c4cn[nH]c4)cc3O)nn2)C[C@H](C)N1 [Cpd 216, 2-{3-[(3S,5R)-3-methyl-5-(propan-2-yl)piperazin-1-yl]-1,2,4-triazin-6-yl]-5-(1H-pyrazol-4-yl)phenol]	218
Oc1cc(-n2nccn2)ccc1-c1cnc(N2CCN3CCC[C@H]3C2)nn1 [Cpd 153, 2-{3-[(8aS)-hexahydropyrrolo[1,2-a]pyrazin-2(1H)-yl]-1,2,4-triazin-6-yl}-5-(2H-1,2,3-triazol-2-yl)phenol]	438
Cc1nc2c(C)nc(-c3ccc(-c4cnc(N5C[C@@H](C)N[C@@H](C)C5)nn4)c(O)c3)cn2n1 [Cpd 101, 2-{3-[(3R,5S)-3,5-dimethylpiperazin-1-yl]-1,2,4-triazin-6-yl}-5-(2,8-dimethyl[1,2,4]triazolo[1,5-a]pyrazin-6-yl)phenol]	13
CN1CCN(c2ncc(-c3ccc(-c4cn[nH]c4)cc3O)nn2)CC1C1CC1 (centres unmarked) [Cpd 27, 2-[3-(3-cyclopropyl-4-methylpiperazin-1-yl)-1,2,4-triazin-6-yl]-5-(1H-pyrazol-4-yl)phenol]	25.1
C[C@@H]1CN(c2ncc(-c3ccc(-c4cn[nH]c4)cc3O)nn2)CCN1 [Cpd 166, 2-{3-[(3R)-3-methylpiperazin-1-yl]-1,2,4-triazin-6-yl}-5-(1H-pyrazol-4-yl)phenol]	192
Oc1cc(-c2cn3ncnc3cn2)ccc1-c1cnc(N2CCN[C@@H](C3CC3)C2)nn1 [Cpd 130, 2-{3-[(3S)-3-cyclopropylpiperazin-1-yl]-1,2,4-triazin-6-yl}-5-([1,2,4]triazolo[1,5-a]pyrazin-6-yl)phenol]	12
[2H]C([2H])([2H])n1cc(-c2ccc(-c3cnc(N4CCNC(C(C)(C)O)C4)nn3)c(O)c2)cn1 (centres unmarked) [Cpd 19, 2-{3-[3-(2-hydroxypropan-2-yl)piperazin-1-yl]-1,2,4-triazin-6-yl}-5-[1-(^2H3)methyl-1H-pyrazol-4-yl]phenol]	17.1
Cc1ccc(-c2ccc(-c3cnc(N4CCN[C@@H](C(C)C)C4)nn3)c(O)c2)cn1 [Cpd 160, 5-(6-methylpyridin-3-yl)-2-{3-[(3S)-3-(propan-2-yl)piperazin-1-yl]-1,2,4-triazin-6-yl]phenol]	789
Oc1cc(-c2cn[nH]c2)ccc1-c1cnc(N2CCN[C@@H](C3CC3)C2)nn1 [Cpd 137, 2-{3-[(3S)-3-cyclopropylpiperazin-1-yl]-1,2,4-triazin-6-yl}-5-(1H-pyrazol-4-yl)phenol]	7.5
CC(C)[C@H]1CN(c2ncc(-c3ccc(-n4ccnc4)cc3O)nn2)CCN1 [Cpd 142, 5-(1H-imidazol-1-yl)-2-{3-[(3S)-3-(propan-2-yl)piperazin-1-yl]-1,2,4-triazin-6-yl}phenol]	60.3
[2H]C([2H])([2H])Oc1cc(-c2ccc(-c3cnc(N4CCN[C@@H](C(C)(C)C)C4)nn3)c(O)c2)ncn1 [Cpd 17, 2-{3-[(3S)-3-tert-butylpiperazin-1-yl]-1,2,4-triazin-6-yl}-5-{6-[(^2H3)methyloxy]pyrimidin-4-yl}phenol]	14.1
[2H]C([2H])([2H])Oc1cc(-c2ccc(-c3cnc(N4CCN(C)C(C(C)(C)O)C4)nn3)c(O)c2)ncn1 (centres unmarked) [Cpd 26, 2-{3-[3-(2-hydroxypropan-2-yl)-4-methylpiperazin-1-yl]-1,2,4-triazin-6-yl}-5-{6-[(^2H3)methyloxy]pyrimidin-4-yl}phenol]	24.9

More lines, now with the values ahead:

IC50 [nM]	SMILES
19.8	COc1cc(-c2ccc(-c3cnc(N4C[C@@H](C)N[C@@H](C(C)C)C4)nn3)c(O)c2)ccn1 [Cpd 257, 5-(2-methoxypyridin-4-yl)-2-{3-[(3R,5S)-3-methyl-5-(propan-2-yl)piperazin-1-yl]-1,2,4-triazin-6-yl}phenol]
74.9	C[C@@H]1CN(c2ncc(-c3ccc(-c4c[nH]nc4F)cc3O)nn2)C[C@H](C(C)(C)C)N1 [Cpd 248, 2-{3-[(3S,5R)-3-tert-butyl-5-methylpiperazin-1-yl]-1,2,4-triazin-6-yl]-5-(3-fluoro-1H-pyrazol-4-yl)phenol]
646	CC(C)[C@H]1CN(c2ncc(-c3ccc(-c4nc(C#N)cs4)cc3O)nn2)CCN1 [Cpd 273, 2-(3-hydroxy-4-{3-[(3S)-3-(propan-2-yl)piperazin-1-yl]-1,2,4-triazin-6-yl}phenyl)-1,3-thiazole-4-carbonitrile]
376	Cc1cnsc1-c1ccc(-c2cnc(N3CCN[C@@H](C(C)C)C3)nn2)c(O)c1 [Cpd 253, 5-(4-methyl-1,2-thiazol-5-yl)-2-{3-[(3S)-3-(propan-2-yl)piperazin-1-yl]-1,2,4-triazin-6-yl}phenol]
21.9	C[C@@H]1CN(c2ncc(-c3ccc(-c4cn[nH]c4)cc3O)nn2)C[C@H](C2CCC2)N1 [Cpd 231, 2-{3-[(3S,5R)-3-cyclobutyl-5-methylpiperazin-1-yl]-1,2,4-triazin-6-yl}-5-(1H-pyrazol-4-yl)phenol]
10.8	CC(C)(C)[C@H]1CN(c2ncc(-c3ccc(-c4ncsn4)cc3O)nn2)CCN1 [Cpd 258, 2-{3-[(3S)-3-tert-butylpiperazin-1-yl]-1,2,4-triazin-6-yl}-5-(1,2,4-thiadiazol-3-yl)phenol]
4.4	C[C@@H]1CN(c2ncc(-c3ccc(-c4cn[nH]c4F)cc3O)nn2)C[C@H](C2CC2)N1 [Cpd 221, 2-{3-[(3S,5R)-3-cyclopropyl-5-methylpiperazin-1-yl]-1,2,4-triazin-6-yl]-5-(5-fluoro-1H-pyrazol-4-yl)phenol]
171	C[C@@H]1CN(c2ncc(-c3ccc(-c4ccn(C)n4)cc3O)nn2)C[C@H](C2CCC2)N1 [Cpd 240, 2-{3-[(3S,5R)-3-cyclobutyl-5-methylpiperazin-1-yl]-1,2,4-triazin-6-yl}-5-(1-methyl-1H-pyrazol-3-yl)phenol]
29.2	CC(C)[C@H]1CN(c2ncc(-c3ccc(-c4ccns4)cc3O)nn2)CCN1 [Cpd 270, 2-{3-[(3S)-3-(propan-2-yl)piperazin-1-yl]-1,2,4-triazin-6-yl}-5-(1,2-thiazol-5-yl)phenol]
55.1	[2H]C([2H])([2H])n1cc(-c2ccc(-c3cnc(N4C[C@@H](C)N[C@@H](C5CCC5)C4)nn3)c(O)c2)cn1 [Cpd 238, 2-{3-[(3S,5R)-3-cyclobutyl-5-methylpiperazin-1-yl]-1,2,4-triazin-6-yl}-5-[l-(^2H3)methyl-1H-pyrazol-4-yl]phenol]
130	COc1cc(-c2ccc(-c3cnc(N4C[C@@H](C5CC5)N[C@@H](C)C4)nn3)c(O)c2)ncn1 [Cpd 226, 2-{3-[(3R,5S)-3-cyclopropyl-5-methylpiperazin-1-yl]-1,2,4-triazin-6-yl}-5-(6-methoxypyrimidin-4-yl)phenol]
417	CC(C)[C@H]1CN(c2ncc(-c3ccc(-c4cn(C)nn4)cc3O)nn2)CCN1 [Cpd 260, 5-(1-methyl-1H-1,2,3-triazol-4-yl)-2-{3-[(3S)-3-(propan-2-yl)piperazin-1-yl]-1,2,4-triazin-6-yl}phenol]
4.5	CC1([C@H]2CN(c3ncc(-c4ccc(-c5cnn6c5CCC6)cc4O)nn3)CCN2)CC1 [Cpd 280, 5-(5,6-dihydro-4H-pyrrolo[1,2-b]pyrazol-3-yl)-2-{3-[(3S)-3-(1-methylcyclopropyl)piperazin-1-yl]-1,2,4-triazin-6-yl}phenol]
67.9	CC(C)[C@@H]1CN(c2ncc(-c3ccc(-c4cn[nH]c4F)cc3O)nn2)C[C@H](C)N1 [Cpd 217, 5-(5-fluoro-1H-pyrazol-4-yl)-2-{3-[(3S,5R)-3-methyl-5-(propan-2-yl)piperazin-1-yl]-1,2,4-triazin-6-yl]phenol]
